pIC50: −log10 of the molar value. ≈ marks a conversion by molar mass, not a printed value.
Columns and labels:
[1] = tested on: Staphylococcus aureus; assay: Antibacterial activity against methicillin resistant Staphylococcus aureus CCARM3167 assessed as inhibition in bacterial growth incubated for 18 hrs by microdilution method; format: functional
[2] = molecular target: T1, L-2,3-diaminopropanoate--citrate ligase (Staphylococcus aureus (strain NCTC 8325 / PS 47)) (UniProt Q2G1M9); assay: Inhibition of Staphylococcus aureus SbnE at 50 uM incubated for 1 hr by malachite green staining based microplate reader analysis relative to control
T1 sequence (whole entry): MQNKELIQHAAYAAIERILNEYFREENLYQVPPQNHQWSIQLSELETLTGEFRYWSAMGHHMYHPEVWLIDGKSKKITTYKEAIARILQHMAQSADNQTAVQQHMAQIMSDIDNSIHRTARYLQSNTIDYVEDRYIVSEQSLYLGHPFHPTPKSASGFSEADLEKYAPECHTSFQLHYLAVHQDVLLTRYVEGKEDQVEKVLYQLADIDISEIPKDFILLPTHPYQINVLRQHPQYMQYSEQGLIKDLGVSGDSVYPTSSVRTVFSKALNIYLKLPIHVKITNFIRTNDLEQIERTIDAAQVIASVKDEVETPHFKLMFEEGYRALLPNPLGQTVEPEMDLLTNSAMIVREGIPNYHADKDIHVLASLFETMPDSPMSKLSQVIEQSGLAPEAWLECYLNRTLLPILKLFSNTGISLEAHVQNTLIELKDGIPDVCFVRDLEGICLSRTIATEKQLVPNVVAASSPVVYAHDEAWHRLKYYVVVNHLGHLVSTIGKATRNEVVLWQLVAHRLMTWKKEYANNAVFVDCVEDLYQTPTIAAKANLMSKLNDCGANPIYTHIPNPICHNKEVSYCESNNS

[3] = tested on: Staphylococcus aureus; assay: Antibacterial activity against […] Staphylococcus aureus ATCC25923 assessed as inhibition in bacterial growth incubated for 18 hrs by microdilution method; format: functional
[4] = molecular target: T2, L-2,3-diaminopropanoate--citrate ligase (Staphylococcus aureus (strain NCTC 8325 / PS 47), UniProt Q2G1M9); assay: Inhibition of Staphylococcus aureus SbnE incubated for 1 hr by malachite green staining based microplate reader analysis
T2 sequence (Q2G1M9 whole entry): T1 sequence (whole entry)

C=CC[C@@H](O)[C@H](CC(C)C)[C@@H](O)c1cc(O)cc(O)c1
MIC [1]: > 256 µg/mL | inhibition [2]: 39.5% | MIC [3]: > 256 µg/mL

CCC[C@@H](O)[C@@H](CC(C)C)[C@@H](O)c1cc(O)cc(O)c1
MIC [1]: > 256 µg/mL | inhibition [2]: 25.6% | MIC [3]: > 256 µg/mL

CC(C)C[C@H]([C@H](O)CC(O)C#C[C@@H](C)C[C@@H](C)C[C@@H](C)CO)[C@@H](O)c1cc(O)cc(O)c1 (stereo partly specified)
pIC50 [4]: 5.17 | MIC [1]: 64 µg/mL (≈ 142 µM) | inhibition [2]: 74.7% | MIC [3]: 64 µg/mL (≈ 142 µM)

CC(C)C[C@@H]([C@H](O)C[C@H](O)C#CCCCCCCOCc1ccccc1)[C@@H](O)c1cc(O)cc(O)c1
pIC50 [4]: 5.15 | MIC [1]: 128 µg/mL (≈ 257 µM) | inhibition [2]: 97.1% | MIC [3]: 128 µg/mL (≈ 257 µM)

C[C@@H](COCc1ccccc1)C[C@H](C)C[C@H](C)C#CC(O)c1cc(O)cc(O)c1 (stereo partly specified)
MIC [1]: 4 µg/mL (≈ 10.1 µM) | inhibition [2]: 34.8% | MIC [3]: 2 µg/mL (≈ 5.04 µM)

CC(C)C[C@H]([C@H](O)CCNc1ccn(C)n1)[C@@H](O)c1cc(O)cc(O)c1
MIC [1]: 128 µg/mL (≈ 352 µM) | inhibition [2]: 48.2% | MIC [3]: 128 µg/mL (≈ 352 µM)

CCC(=O)[C@@H](C)C[C@@H](C)C[C@@H](C)CCCC[C@@H](O)[C@@H](CC(C)C)[C@@H](O)c1cc(O)cc(O)c1
pIC50 [4]: 4.78 | MIC [1]: 4 µg/mL (≈ 8.61 µM) | inhibition [2]: 81.5% | MIC [3]: 8 µg/mL (≈ 17.2 µM)

CC(C)C[C@H]([C@H](O)CCNCc1ccco1)[C@@H](O)c1cc(O)cc(O)c1
MIC [1]: > 256 µg/mL | inhibition [2]: 34.5% | MIC [3]: > 256 µg/mL

CC(C)C[C@H]([C@H](O)CCNc1ccccc1O)[C@@H](O)c1cc(O)cc(O)c1
MIC [1]: 64 µg/mL (≈ 170 µM) | inhibition [2]: 4.87% | MIC [3]: 64 µg/mL (≈ 170 µM)

CC(C)C[C@@H]([C@@H](O)C[C@H](O)CC[C@@H](C)C[C@H](C)C[C@@H](C)CO)[C@@H](O)c1cc(O)cc(O)c1
pIC50 [4]: 4.54 | MIC [1]: > 256 µg/mL | inhibition [2]: 59.1% | MIC [3]: > 256 µg/mL

CC(C)C[C@@H]([C@H](O)CCCCCCCCCCO)[C@@H](O)c1cc(O)cc(O)c1
MIC [1]: > 256 µg/mL | inhibition [2]: 19.8% | MIC [3]: > 256 µg/mL

CC(C)C[C@H]([C@H](O)CCO)[C@@H](O)c1cc(O)cc(O)c1
MIC [1]: > 256 µg/mL | inhibition [2]: 28.3% | MIC [3]: > 256 µg/mL

CC(C)C[C@@H]([C@H](O)C[C@H](O)C#C[C@@H](C)C[C@H](C)C[C@@H](C)COCc1ccccc1)[C@@H](O)c1cc(O)cc(O)c1
pIC50 [4]: 4.93 | MIC [1]: 64 µg/mL (≈ 118 µM) | inhibition [2]: 76.8% | MIC [3]: 64 µg/mL (≈ 118 µM)

C=CC[C@@H](O)[C@@H](CC(C)C)[C@@H](O)c1cc(O)cc(O)c1
pIC50 [4]: 5.09 | MIC [1]: > 256 µg/mL | inhibition [2]: 96.8% | MIC [3]: > 256 µg/mL

CC(C)C[C@H]([C@H](O)CCNc1cccc([N+](=O)[O-])c1)[C@@H](O)c1cc(O)cc(O)c1
MIC [1]: 256 µg/mL (≈ 633 µM) | inhibition [2]: 5.19% | MIC [3]: 64 µg/mL (≈ 158 µM)

CC(C)C[C@@H]([C@H](O)C[C@H](O)CCCCCCCCO)[C@@H](O)c1cc(O)cc(O)c1
MIC [1]: > 256 µg/mL | inhibition [2]: 38.4% | MIC [3]: > 256 µg/mL

CC(C)C[C@@H]([C@H](O)C[C@H](O)CC[C@@H](C)C[C@H](C)C[C@@H](C)CO)[C@@H](O)c1cc(O)cc(O)c1
MIC [1]: > 256 µg/mL | inhibition [2]: 31.1% | MIC [3]: > 256 µg/mL

CC(C)C[C@@H]([C@H](O)CCCC[C@@H](C)C[C@H](C)C[C@@H](C)CO)[C@@H](O)c1cc(O)cc(O)c1
pIC50 [4]: 4.98 | MIC [1]: > 256 µg/mL | inhibition [2]: 79.4% | MIC [3]: > 256 µg/mL

Reference: ChEMBL document CHEMBL5625182, “Synthesis and antibacterial activities of baulamycin A inspired derivatives” (Eur J Med Chem, 2023)
